Experimental data as given in the supplement of paper PMC10307832.

Key:
Test in all cases: relative viability (nuclei count vs DMSO), 5 days (fraction); higher = more cells survive
NCI-H647 = system: NCI-H647
How it was run: (§1)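 For relative viability, nuclei counts in treated wells were divided by those in vehicle wells. Lung cancer cell lines had been pin-tool dosed in 1536-well plates the day after seeding and cultured for 5 days, then fixed and stained in one step (final 0.05% Triton X-100, 1% formaldehyde, 1 ug/ml Hoechst) and imaged at 4×. Doses were one drug alone or a fixed anchor-drug dose plus five library-drug doses (not always all listed) in √10 steps, and values are duplicate-plate medians.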

NCI-H460 = system: NCI-H460
How it was run: as §1

HCC-78 = system: HCC-78
How it was run: as §1

A-427 = system: A-427
How it was run: as §1

NCI-H661 = system: NCI-H661
How it was run: as §1

HCC-15 = system: HCC-15
How it was run: as §1

HOP-62 = system: HOP-62
How it was run: as §1

PC-14 = system: PC-14
How it was run: as §1

EMC-BAC-2 = system: EMC-BAC-2
How it was run: as §1

NCI-H2405 = system: NCI-H2405
How it was run: as §1

COR-L23 = system: COR-L23
How it was run: as §1

NCI-H522 = system: NCI-H522
How it was run: as §1

EKVX = system: EKVX
How it was run: as §1

201T = system: 201T
How it was run: as §1

SK-MES-1 = system: SK-MES-1
How it was run: as §1

NCI-H1915 = system: NCI-H1915
How it was run: as §1

LK-2 = system: LK-2
How it was run: as §1

BEN = system: BEN
How it was run: as §1

NCI-H1993 = system: NCI-H1993
How it was run: as §1

HCC-366 = system: HCC-366
How it was run: as §1

COR-L 105 = system: COR-L 105
How it was run: as §1

NCI-H1734 = system: NCI-H1734
How it was run: as §1

## Cc1csc(=NC2CCCCC2)n1/N=C/c1ccc(O)c(O)c1O [MIM1] + O=C(CCCCCCC(=O)Nc1ccccc1)NO [Vorinostat] (partner 1 µM)
NCI-H647; first compound 0.2 µM
  relative viability: 0.655
NCI-H647; first compound 0.6325 µM
  relative viability: 0.61
NCI-H647; first compound 2 µM
  relative viability: 0.614
NCI-H647; first compound 6.325 µM
  relative viability: 0.454
NCI-H647; first compound 20 µM
  relative viability: 0.104
NCI-H460; first compound 0.2 µM
  relative viability: 0.703
NCI-H460; first compound 0.6325 µM
  relative viability: 0.746
NCI-H460; first compound 2 µM
  relative viability: 0.411
NCI-H460; first compound 6.325 µM
  relative viability: 0.117
NCI-H460; first compound 20 µM
  relative viability: 0.0234
HCC-78; first compound 0.2 µM
  relative viability: 0.452
HCC-78; first compound 2 µM
  relative viability: 0.38
HCC-78; first compound 6.325 µM
  relative viability: 0.424
HCC-78; first compound 20 µM
  relative viability: 0.438
A-427; first compound 0.2 µM
  relative viability: 0.858
A-427; first compound 0.6325 µM
  relative viability: 0.663
A-427; first compound 2 µM
  relative viability: 0.849
A-427; first compound 6.325 µM
  relative viability: 0.745
A-427; first compound 20 µM
  relative viability: 0.312
NCI-H661; first compound 0.2 µM
  relative viability: 0.764
NCI-H661; first compound 0.6325 µM
  relative viability: 0.748
NCI-H661; first compound 2 µM
  relative viability: 0.742
NCI-H661; first compound 6.325 µM
  relative viability: 0.406
NCI-H661; first compound 20 µM
  relative viability: 0.292
HCC-15; first compound 0.2 µM
  relative viability: 0.789
HCC-15; first compound 0.6325 µM
  relative viability: 0.81
HCC-15; first compound 2 µM
  relative viability: 0.87
HCC-15; first compound 6.325 µM
  relative viability: 0.49
HCC-15; first compound 20 µM
  relative viability: 0.167
HOP-62; first compound 0.2 µM
  relative viability: 0.655
HOP-62; first compound 0.6325 µM
  relative viability: 0.469
HOP-62; first compound 2 µM
  relative viability: 0.541
HOP-62; first compound 6.325 µM
  relative viability: 0.379
HOP-62; first compound 20 µM
  relative viability: 0.0827
PC-14; first compound 0.2 µM
  relative viability: 0.746
PC-14; first compound 0.6325 µM
  relative viability: 0.616
PC-14; first compound 2 µM
  relative viability: 0.478
PC-14; first compound 6.325 µM
  relative viability: 0.456
PC-14; first compound 20 µM
  relative viability: 0.118
EMC-BAC-2; first compound 0.2 µM
  relative viability: 0.492
EMC-BAC-2; first compound 0.6325 µM
  relative viability: 0.302
EMC-BAC-2; first compound 2 µM
  relative viability: 0.404
EMC-BAC-2; first compound 6.325 µM
  relative viability: 0.313
EMC-BAC-2; first compound 20 µM
  relative viability: 0.157
NCI-H2405; first compound 0.2 µM
  relative viability: 1.01
NCI-H2405; first compound 0.6325 µM
  relative viability: 0.964
NCI-H2405; first compound 2 µM
  relative viability: 1.11
NCI-H2405; first compound 6.325 µM
  relative viability: 0.749
NCI-H2405; first compound 20 µM
  relative viability: 0.416
COR-L23; first compound 0.2 µM
  relative viability: 0.42
COR-L23; first compound 0.6325 µM
  relative viability: 0.441
COR-L23; first compound 2 µM
  relative viability: 0.371
COR-L23; first compound 6.325 µM
  relative viability: 0.314
COR-L23; first compound 20 µM
  relative viability: 0.162
NCI-H522; first compound 0.2 µM
  relative viability: 0.858
NCI-H522; first compound 0.6325 µM
  relative viability: 0.916
NCI-H522; first compound 2 µM
  relative viability: 0.91
NCI-H522; first compound 6.325 µM
  relative viability: 0.891
NCI-H522; first compound 20 µM
  relative viability: 0.345
EKVX; first compound 0.2 µM
  relative viability: 0.609
EKVX; first compound 2 µM
  relative viability: 0.707
EKVX; first compound 6.325 µM
  relative viability: 0.473
EKVX; first compound 20 µM
  relative viability: 0.265
201T; first compound 0.2 µM
  relative viability: 0.974
201T; first compound 0.6325 µM
  relative viability: 0.952
201T; first compound 2 µM
  relative viability: 0.935
201T; first compound 6.325 µM
  relative viability: 0.528
201T; first compound 20 µM
  relative viability: 0.3
SK-MES-1; first compound 0.2 µM
  relative viability: 1.02
SK-MES-1; first compound 0.6325 µM
  relative viability: 0.953
SK-MES-1; first compound 2 µM
  relative viability: 0.959
SK-MES-1; first compound 6.325 µM
  relative viability: 0.594
SK-MES-1; first compound 20 µM
  relative viability: 0.2
NCI-H1915; first compound 0.2 µM
  relative viability: 0.527
NCI-H1915; first compound 0.6325 µM
  relative viability: 0.429
NCI-H1915; first compound 2 µM
  relative viability: 0.442
NCI-H1915; first compound 6.325 µM
  relative viability: 0.343
NCI-H1915; first compound 20 µM
  relative viability: 0.17
LK-2; first compound 0.2 µM
  relative viability: 0.363
LK-2; first compound 0.6325 µM
  relative viability: 0.272
LK-2; first compound 2 µM
  relative viability: 0.304
LK-2; first compound 6.325 µM
  relative viability: 0.562
LK-2; first compound 20 µM
  relative viability: 0.203
BEN; first compound 0.2 µM
  relative viability: 0.587
BEN; first compound 0.6325 µM
  relative viability: 0.546
BEN; first compound 2 µM
  relative viability: 0.562
BEN; first compound 6.325 µM
  relative viability: 0.511
BEN; first compound 20 µM
  relative viability: 0.394
NCI-H1993; first compound 0.2 µM
  relative viability: 0.851
NCI-H1993; first compound 0.6325 µM
  relative viability: 0.601
NCI-H1993; first compound 2 µM
  relative viability: 0.601
NCI-H1993; first compound 6.325 µM
  relative viability: 0.348
NCI-H1993; first compound 20 µM
  relative viability: 0.413
HCC-366; first compound 0.2 µM
  relative viability: 0.33
HCC-366; first compound 2 µM
  relative viability: 0.243
HCC-366; first compound 6.325 µM
  relative viability: 0.0699
HCC-366; first compound 20 µM
  relative viability: 0.0271
COR-L 105; first compound 0.2 µM
  relative viability: 0.809
COR-L 105; first compound 0.6325 µM
  relative viability: 0.821
COR-L 105; first compound 2 µM
  relative viability: 0.774
COR-L 105; first compound 6.325 µM
  relative viability: 0.731
COR-L 105; first compound 20 µM
  relative viability: 0.616
NCI-H1734; first compound 0.2 µM
  relative viability: 0.911
NCI-H1734; first compound 0.6325 µM
  relative viability: 0.582
NCI-H1734; first compound 2 µM
  relative viability: 0.757
NCI-H1734; first compound 6.325 µM
  relative viability: 0.442
NCI-H1734; first compound 20 µM
  relative viability: 0.125
